Each structure is given as a SMILES string.

The assay relates to Plasmodium falciparum. Nature of the assay: GSK_TCMDC: Inhibition of Plasmodium falciparum 3D7 in whole erythrocytes, using parasite LDH activity as an index of growth. Format: functional, organism-based. Particulars: Plasmodium falciparum, 3D7.
In turn, `CN(C)CCCOc1ccc(CN2CC[C@H](NC(=O)c3ccc(Cl)c(Cl)c3)C2)cc1Cl` came in with an XC50 of 957 nM. Molecule `Cc1cc(CNCCCCCCCNCc2cccc([N+](=O)[O-])c2)ccc1O` had an XC50 of 637 nM.

Consider `COC(=O)Nc1nc2cc3c(cc2s1)OCCO3`, for which the XC50 turned out to be 841 nM. `CCN(CC)C(=O)c1cccc(C=Cc2ccc(-c3c(C)[nH]c(C)c(Cl)c3=O)cc2)c1` came in with an XC50 of 259 nM. Turning to `CC(C)c1ccc(NC(=O)c2ccc(C(=O)NCC3CCN(CC4CCCCC4)CC3)cc2)cc1`, the XC50 came to 900 nM.

`CS(=O)(=O)c1ccccc1CNC(=O)c1ccc(-c2cccc(-c3nc4cc(C(F)(F)F)ccc4[nH]3)c2)cc1` displayed an XC50 of 866 nM. On to `CCCC(=O)NC(NC(=S)Nc1ccc([N+](=O)[O-])cc1)C(Cl)(Cl)Cl` (stereo not given), for which the XC50 is 1030 nM.

Take `Clc1cc(Nc2ccnc3ccc(Br)cc23)ccc1Oc1ccc2ccccc2c1Cl`: the XC50 amounted to 725 nM. As for `O=C(Nc1cccc(CN2CCN(C(=O)c3cccc(Cl)c3)CC2)c1)c1cccs1`, the XC50 was determined as 184 nM.

Turning to `CC1CCCCC1N(C)C1CCN(CCCNC(=O)C=Cc2cccc(C(F)(F)F)c2)CC1` (stereo not given), the XC50 was found to be 772 nM. In the case of `COc1ccc([N+](=O)[O-])cc1N(Cc1ccccc1-c1ccccc1)S(=O)(=O)c1ccc(C(F)(F)F)cc1`, the XC50 stood at 784 nM. With `O=[N+]([O-])c1ccc2nc(Nc3cccc(C(F)(F)F)c3)c(Nc3cccc(C(F)(F)F)c3)nc2c1`, the XC50 worked out at 483 nM. For `CC1(C)C(=O)Nc2ccccc2N1C(=O)CN1CCN(c2ccccc2O)CC1` the value was 1070 nM. For `CCN(CC)CCON=Cc1cc(C)c2[nH]c3ccc(OCc4ccccc4)cc3c2c1C` the value was 972 nM; for `CN(C)CCOc1cc(NC(=O)Nc2ccc(-c3ccncc3)c(C(F)(F)F)c2)ccc1Cl`, 991 nM; for `COc1ccc(C(F)(F)F)cc1N1CCN(CCCCNC(=O)c2ccc(NC(=O)c3ccc(Cl)cc3)cc2)CC1`, 909 nM. The figure for `Cn1c(N)c(N=O)c(=O)[nH]c1=O` is 176 nM; for `CNC(=O)c1cnc(Nc2ccc(N3CCN(C)CC3)cc2)nc1Nc1cccc(OC(C)C)c1` it is 147 nM. For the molecule `Cc1[nH]c(C)c(-c2ccc(Nc3ccc(C(F)(F)F)cn3)cc2)c(=O)c1Br`, the XC50 amounted to 26 nM. The figure for `COc1ccc2nccc(N3CCC(NCc4ccc5c(n4)NC(=O)CS5)CC3)c2n1` is 860 nM; for `Cn1c(N)c(C(=O)CSc2ncc(-c3ccc(F)cc3)n2Cc2ccccc2)c(=O)n(C)c1=O` it is 569 nM; for `CC(=O)Nc1nc(C(=O)Nc2cccc(-c3ccc(-c4nc5ccccc5[nH]4)cc3)c2)cs1` it is 421 nM.

The molecule `CCOC(=O)c1ccc(NC(=O)Nc2cccc(-c3ccc(-c4nc5cccc(C)c5[nH]4)s3)c2)cc1` gave an XC50 of 144 nM. `COc1ccc(C(C)Nc2nc(N)c3cc(OC)c(OC)cc3n2)cc1` (stereo not given): the XC50 worked out at 936 nM.

For the molecule `CN(C)c1cccc(NC(=O)NC2N=C(c3ccccc3)c3ccccc3N(CC(=O)N(C)c3ccccc3)C2=O)c1` (stereo not given), the XC50 came to 947 nM. In turn, `COc1ccc(-c2csc(C(=O)NC3CCC(N4CCC(c5ccccc5C)CC4)CC3)c2)cc1` (stereo not given) returned an XC50 of 378 nM.

The molecule `O=C(/C=C/C=C/c1ccc(Cl)c(Cl)c1)NCCCCCN1CCCC2CCCCC21` (stereo not given) gave an XC50 of 954 nM. For `Cc1cc(CNCCCCCCNCc2cccc([N+](=O)[O-])c2)ccc1O` the value was 723 nM; for `COc1ccc(-c2cc(-c3ccc(S(C)(=O)=O)cc3)cnc2N)cn1`, 187 nM; for `Cc1cc2[nH]c(-c3ccc(C(=O)NCCCN4CCN(c5cccc(Cl)c5)CC4)cc3)nc2cc1Cl`, 769 nM.

For the molecule `Cc1cc(NC(=O)c2cccs2)ccc1OC1CCN(Cc2ccc(F)cc2)C1` (stereo not given), the XC50 worked out at 669 nM. With `Cc1ccc(C(=O)Nc2ccnc(N(C)C3CCN(Cc4cccc(O)c4)CC3)c2)cn1`, the XC50 is 1880 nM. For the molecule `CC(Cc1ccc(OCC(=O)NCC2CCN(CCc3cccc(Cl)c3)CC2)cc1)NCCc1cccc(Cl)c1` (stereo not given), the XC50 was determined as 663 nM. The figure for `Cc1[nH]c(C)c(-c2ccc(-c3ccc(C(F)(F)F)cc3C(F)(F)F)nc2)c(=O)c1Br` is 187 nM. The figure for `Cc1cccc(CNc2nc(C)cc(N[C@@H](CC(C)C)C(=O)NCc3cccc(F)c3)n2)c1` is 1180 nM. For `O=C(Nc1cccc2ccccc12)N1CCC(NS(=O)(=O)c2cccc(C(F)(F)F)c2)CC1` the value was 913 nM; for `Oc1cccc(-c2nc(-c3ccccc3)c(-c3ccc4oc5ccc(-c6[nH]c(-c7cccc(O)c7)nc6-c6ccccc6)cc5c4c3)[nH]2)c1`, 795 nM; for `CC(C)(C)NS(=O)(=O)c1cc(C(=O)N2CCC(CCN3CCC(O)(c4cccc(C(F)(F)F)c4)CC3)(c3cccc(F)c3)CC2)c(Cl)cc1F`, 858 nM.

Take `Cn1cnc(CCNC(=O)c2ccc(-c3ccc(-c4nc5cc(C(F)(F)F)ccc5[nH]4)s3)cc2)c1`: the XC50 was determined as 402 nM. For `COc1c(CNCCCCCCNCc2cc(Cl)c3ccccc3c2OC)cc(Cl)c2ccccc12` the value was 937 nM. The figure for `O=C(Nc1ccc(OC2CCN(Cc3ccsc3)CC2)c(Cl)c1)c1ccc(F)cc1` is 647 nM; for `CC(C)CSc1cc(C(=O)Nc2cc(Cl)ccc2O)ccn1` it is 670 nM; for `COc1ccc(NC(=O)/C=C/c2ccc(-c3ccccc3)cc2)cc1N1CCN(C)CC1` it is 906 nM.

In turn, `CCCC(=O)Nc1ccc(OCCCN(Cc2ccccc2OC(F)(F)F)c2ccc(C#N)c(C(F)(F)F)c2)cc1` yielded an XC50 of 600 nM. For `Cc1cc(C)c2c(c1)C(=NO)CCN2` the value was 945 nM.

The molecule `COc1cc(F)c2ncc(Cl)c(C(O)CN3CCC(NC(=O)c4ccc5c(n4)NC(=O)CO5)CC3)c2c1` (stereo not given) displayed an XC50 of 754 nM. For `COc1ccc2nc(-c3cc(-c4ccc(NC(C)=O)cc4)cnc3N)[nH]c2c1` the value was 1240 nM; for `O=c1cc(NCCCNCc2sc(Br)nc2Br)[nH]c2ccccc12`, 866 nM. The figure for `COc1ccc(F)cc1-c1ccc(C(=O)N2CCCN(c3ccc(C(F)(F)F)cn3)CC2)cc1` is 157 nM. The figure for `CCOC(=O)c1cnc2c(OC)cc(OC)c(Cl)c2c1Nc1cccc(C)c1` is 844 nM; for `Cc1cc(N[C@@H](CC(C)C)C(=O)NCc2cccc(F)c2)nc(Nc2ccccc2)n1` it is 1090 nM. On to `CN(CCCc1c[nH]c2ccccc12)CCC1CCC(NC(=O)/C=C/c2ccc(Cl)c(Cl)c2)CC1` (stereo not given), for which the XC50 was determined as 650 nM. The figure for `Nc1nc(NCC2CCC(CNS(=O)(=O)c3cccc4ccccc34)CC2)nc2ccccc12` (stereo not given) is 804 nM; for `CCCCCCCc1cc(O)c2c(c1)OC(C)(C)c1ccncc1-2` it is 1150 nM; for `CCCCCCN1CCC(NCc2cccc3ccccc23)CC1` it is 811 nM.

In the case of `c1ccc2c(c1)cc(CNCCCN1CCN(CCCNCc3cc4ccccc4c4ccccc34)CC1)c1ccccc12`, the XC50 is 204 nM. For `CO/C(=C\C=C\c1cc2cc(Cl)c(Cl)cc2[nH]1)C(=O)NCCCN1CCN(c2ccncc2)CC1` the value was 733 nM. The figure for `CC(=O)Nc1ccc(CN2CCN(C(c3ccc(F)cc3)c3ccc(F)cc3)CC2)cc1` is 831 nM. In turn, `O=S(=O)(NC1CCCCN(Cc2ccccc2O)C1)c1ccc(C(F)(F)F)cc1` (stereo not given) displayed an XC50 of 1300 nM.

Molecule `O=C(NC1CCN(Cc2ccccc2)CC1)c1ccc(-c2nc3cc(F)c(F)cc3[nH]2)s1` had an XC50 of 835 nM.

For `CN(c1ccc(NC(=O)Nc2cc(C(C)(C)C)on2)cc1)c1ccnc(NCCOC(=O)Nc2cc(C(C)(C)C)on2)n1`, the XC50 came out at 752 nM.

Molecule `Cc1ccc(CON2C(N)=NC(N)=NC23CCCCC3)c2ccccc12` showed an XC50 of 72.6 nM. The molecule `CN(CCC(CCN1CCC(c2c[nH]c3ccccc23)CC1)c1ccccc1)C(=O)Nc1ccc(Cl)c(Cl)c1` (stereo not given) showed an XC50 of 1190 nM. For `O=C(Nc1ccc(OC2CCN(Cc3ccc(F)cc3)CC2)cc1)c1cccs1` the value was 969 nM; for `Cc1nc(C(=O)N2CCCC[C@H]2CNC(=O)c2ccc(-c3ccc(N4CCCC4=O)cc3C)cc2)c(-c2ccc(F)cc2)s1`, 459 nM; for `N#Cc1ccc(N2CCN(Cc3ccc(-c4cccc(-c5nc6ccccc6[nH]5)c4)cc3)CC2)nc1`, 908 nM. `CC(CN(C)C)C(=O)Nc1cccc(-c2cccc(-c3nc4cc(F)ccc4[nH]3)c2)c1` (stereo not given) returned an XC50 of 826 nM.

As to `Cc1cccc(S(=O)(=O)Nc2cccc(CCN3CCC(N4CCCCC4)CC3)c2)c1`, the XC50 worked out at 1330 nM. For `NC(=O)c1ccc(NCC(=O)Nc2cccc(-c3cccc(-c4nc5ccccc5[nH]4)c3)c2)cc1` the value was 987 nM; for `c1ccc(CCNc2ccnc(Nc3ccc4[nH]nnc4c3)n2)cc1`, 863 nM. For `CCc1ccc(NC(=O)c2ccc(CN3CCCN(CC4CCCCC4)CC3)cc2)cc1`, the XC50 amounted to 711 nM.

As to `Cc1cccc2nc(-c3ccc(-c4ccc(CNCc5ccc(CN)cc5)cc4)s3)[nH]c12`, the XC50 is 442 nM. The figure for `CC(=O)Nc1ccc(CCNC(C)Cc2ccc(C(=O)Nc3ccc(CC(C)NCCc4cccc(Cl)c4)cc3)cc2)cc1` (stereo not given) is 330 nM. For `CCN1CCN(Cc2ccc(-c3ccc(NS(=O)(=O)c4cccc5cccnc45)cc3)cc2)CC1` the value was 922 nM; for `S=c1nc(-c2ccccc2)n2ccsc2n1`, 176 nM.

With `COc1cccc(CN2CCC(C(=O)Nc3ccc(-c4nc5ccccc5[nH]4)cc3)CC2)c1`, the XC50 was found to be 627 nM. The molecule `Nc1ncc(-c2ccc(S(=O)(=O)Nc3ccc(C(=O)N[C@@H](CCC(=O)O)C(=O)O)cc3)cc2)c(=O)[nH]1` returned an XC50 of 803 nM.

Take `Cc1cc(=NN=Cc2cccc(Cl)c2)c2ccccc2[nH]1`: the XC50 was 255 nM. The figure for `CCCCCN1CCN(Cc2cccc(NC(=O)c3ccc(Cl)c(Cl)c3)c2)CC1` is 857 nM; for `Cc1cccc2nc(-c3ccc(-c4cccc(CNCCCNS(C)(=O)=O)c4)s3)[nH]c12` it is 1020 nM; for `CS(=O)(=O)Nc1ccc2c(C3CCN(CCC4CCN(C(=O)/C=C/c5ccc(Cl)c(Cl)c5)CC4)CC3)c[nH]c2c1` it is 599 nM. With `FC(F)(F)c1ccc2[nH]c(-c3ccc(-c4cccc(CN5CCCCC5)c4)cc3)nc2c1`, the XC50 was 144 nM. Regarding `CO/C(=C\C=C\c1cc2cc(Cl)c(Cl)cc2[nH]1)C(=O)NCCCN1CCN(c2ccc(OC)cc2)CC1`, the XC50 stood at 700 nM.

The molecule `N#CCCN1CCN(Cc2cccc(-c3ccc(-c4nc5ccccc5[nH]4)s3)c2)CC1` registered an XC50 of 759 nM.

As for `Cc1cc(Nc2ccc(Cl)cc2)n2nc(C(F)(F)F)nc2n1`, the XC50 was determined as 117 nM.
